Structures can show the parent of a compound that is named as a salt. Where two headings read alike, the source gives them in different places.
Columns and labels:
[1] = test system: tobacco mosaic virus (TMV); experiment: Anti-TMV in vitro effect (half-leaf soaking); assay type: cell-based, tobacco mosaic virus (host Nicotiana tabacum L.cv.Xanthi NN)
[2] = test system: tobacco mosaic virus (TMV); experiment: Anti-TMV in vivo inactivation; design: species or system tobacco mosaic virus (host Nicotiana tabacum L.cv.Xanthi NN)
[3] = test system: tobacco mosaic virus (TMV); experiment: Anti-TMV in vivo therapeutic effect; design: species or system tobacco mosaic virus (host Nicotiana tabacum L.cv.Xanthi NN)
[4] = test system: tobacco mosaic virus (TMV); experiment: Anti-TMV in vivo protective effect; design: species or system tobacco mosaic virus (host Nicotiana tabacum L.cv.Xanthi NN)
cucumber fusarium wilt = experiment: Fungicidal (bactericidal) activity in vitro, PDA colony diameter; assay type: cell-based; conditions: 50 mg/kg
Cercospora arachidicola = experiment: as above; assay type: cell-based; conditions: 50 mg/kg
Macrophoma kawatsukai = experiment: as above; assay type: cell-based; conditions: 50 mg/kg
Alternaria solani = experiment: as above; assay type: cell-based; conditions: 50 mg/kg
Fusarium graminearumt = experiment: microbe, parasite or virus in culture; assay type: cell-based; conditions: 50 mg/kg
potato late blight = experiment: microbe, parasite or virus in culture; assay type: cell-based
Sclerotinia scleotiorum = experiment: Fungicidal (bactericidal) activity in vitro, PDA colony diameter; assay type: cell-based; conditions: 50 mg/kg
Botrytis cinerea = experiment: as above; assay type: cell-based; conditions: 50 mg/kg
Rhizoctonia solani = experiment: as above; assay type: cell-based; conditions: 50 mg/kg
Phytophthora capsici = experiment: as above; assay type: cell-based; conditions: 50 mg/kg
Fusarium fujikuroi = experiment: as above; assay type: cell-based; conditions: 50 mg/kg
Rhizoctonia cereali = experiment: as above; assay type: cell-based
Bipolaria maydis = experiment: organism not typed; assay type: cell-based; conditions: 50 mg/kg
[5] = test system: Colletotrichum orbiculare; experiment: Fungicidal (bactericidal) activity in vitro, PDA colony diameter; assay type: cell-based; conditions: 50 mg/kg
armyworms = assay type: in vivo; conditions: concentration 600 mg/kg
cotton bollworms = experiment: whole plant or invertebrate; conditions: concentration 600 mg/kg
Protocol: Experimental method of cotton bollworms: feed and drug mixing method: measure 3 mL of prepared solution and add it to about 27 g of newly prepared feed, thereby obtaining needed concentration through dilution by 10 times.

mosquito larvae = experiment: whole plant or invertebrate; conditions: 24 h
Outline: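 Early fourth-instar Culex pipiens pallens larvae from an indoor colony, 10 per beaker, exposed to test compound at 5 ppm in water, diluted from a 1000 ppm acetone mother solution. Blank: water containing 0.5 mL test solvent.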

corn borers = conditions: concentration 600 mg/kg

SMILES | Relative inhibition rate (%) In vitro activity ([1]; treatment dose 100 μg/mL) [%] | Relative inhibition rate (%) In vitro activity ([1]; treatment dose 500 μg/mL) [%] | Relative inhibition rate (%) In vivo inactivation ([2]; treatment dose 100 μg/mL) [%] | Relative inhibition rate (%) In vivo inactivation ([2]; treatment dose 500 μg/mL) [%] | Relative inhibition rate (%) In vivo therapy ([3]; treatment dose 100 μg/mL) [%] | Relative inhibition rate (%) In vivo therapy ([3]; treatment dose 500 μg/mL) [%] | Relative inhibition rate (%) In vivo protection ([4]; treatment dose 100 μg/mL) [%] | Relative inhibition rate (%) In vivo protection ([4]; treatment dose 500 μg/mL) [%] | Bactericidal activity (%) Cucumber fusarium wilt (cucumber fusarium wilt) [%] | Bactericidal activity (%) Cercospora arachidicola (Cercospora arachidicola) [%] | Bactericidal activity (%) Macrophoma kawatsukai (Macrophoma kawatsukai) [%] | Bactericidal activity (%) Alternaria solani (Alternaria solani) [%] | Bactericidal activity (%) Fusarium graminearumt (Fusarium graminearumt) [%] | Bactericidal activity (%) potato late blight (potato late blight) [%] | Bactericidal activity (%) Sclerotinia scleotiorum (Sclerotinia scleotiorum) [%] | Bactericidal activity (%) Botrytis cinerea (Botrytis cinerea) [%] | Bactericidal activity (%) Rhizoctonia solani (Rhizoctonia solani) [%] | Bactericidal activity (%) Phytophthora capsici (Phytophthora capsici) [%] | Bactericidal activity (%) Fusarium fujikuroi (Fusarium fujikuroi) [%] | Bactericidal activity (%) Bipolaria maydis (Bipolaria maydis) [%] | other results
C[C@@H]1N[C@H](C(=O)NN=Cc2ccc(N(C)C)cc2)Cc2c1[nH]c1ccccc21 [Ic-3, (1S, 3S)—N′-(4-dimethylaminobenzylidene)-1-methyl-2,3,4,9-tetrahydropyridino [3,4-b] indol-3-formylhydrazine] | 20.4 | 56.8 | 25 | 64.5 | 23.1 | 60.4 | 18.9 | 62.4 | 38.5 | 76.5 | 97.2 | 65.0 | 31.0 | 72.0 | 41.2 | 72.7 | 63.2 | 78.9 | 35.7 | 64.0 | Bactericidal activity (%) Rhizoctonia cereali (Rhizoctonia cereali; 50 mg/kg): 96.1%; Bactericidal activity (%) Colletotrichum orbiculare [5]: 48.1%; Armyworm Mortality (%) (armyworms): 25%; Cotton bollworm Mortality (%) (cotton bollworms): 40%; Mosquito larvae Mortality (%) (mosquito larvae; concentration 10 mg/kg): 55%; Corn borer Mortality (%) (corn borers): 30%
C[C@@H]1N[C@H](C(=O)NNC(=O)c2ccccc2)Cc2c1[nH]c1ccccc21 [Id-4, (1S, 3S)—N′-benzoyl-1-methyl-2,3,4,9-tetrahydropyridino [3,4-b] indol-3-formylhydrazine] | 0 | 36.9 | 0 | 37.5 | 0 | 34.2 | 12.1 | 40 | 13.6 | 27.3 | 45.5 | 33.3 | 38.5 | 17.4 | 7.7 | 55.6 | 5.6 | 18.2 | 29.4 | 28.0 | Bactericidal activity (%) Rhizoctonia cereali (Rhizoctonia cereali; 50 mg/kg): 35.1%; Bactericidal activity (%) Colletotrichum orbiculare [5]: 32.0%; Armyworm Mortality (%) (armyworms): 10%; Cotton bollworm Mortality (%) (cotton bollworms): 30%; Mosquito larvae Mortality (%) (mosquito larvae; concentration 10 mg/kg): 25%; Corn borer Mortality (%) (corn borers): 15%
C[C@@H]1N[C@H](C(=O)NN=Cc2ccc(Cl)cc2Cl)Cc2c1[nH]c1ccccc21 [Ic-6, (1S, 3S)—N′-(2,4-dichlorobenzylidene)-1-methyl-2,3,4,9-tetrahydropyridino [3,4-b] indol-3-formylhydrazine] | 20.1 | 56.8 | 28.5 | 66.7 | 31.5 | 60.4 | 18.6 | 57.2 | 27.3 | 45.5 | 48.5 | 42.9 | 53.8 | 39.1 | 46.2 | 52.8 | 45.8 | 60.6 | 47.1 | 56.0 | Bactericidal activity (%) Rhizoctonia cereali (Rhizoctonia cereali): 56.8%; Bactericidal activity (%) Colletotrichum orbiculare [5]: 60.0%; Armyworm Mortality (%) (armyworms): 45%; Cotton bollworm Mortality (%) (cotton bollworms): 35%; Mosquito larvae Mortality (%) (mosquito larvae; concentration 5 mg/kg): 20%; Mosquito larvae Mortality (%) (mosquito larvae; concentration 10 mg/kg): 100%; Corn borer Mortality (%) (corn borers): 40%
CCOC(=O)C1Cc2c([nH]c3ccccc23)CN1 (centres unmarked) [Ib-9, 2,3,4,9-tetrahydropyridino [3,4-b] indol-3-ethyl formate] | 12.8 | 44.5 | 16.9 | 41 | 14.3 | 42.7 | 17.2 | 40.4 | 19.2 | 84.6 | 21.4 | 26.3 | 35.7 | 22.7 | 19.6 | 12.1 | 35.5 | 15.6 | 14.3 | 22.7 | Bactericidal activity (%) Rhizoctonia cereali (Rhizoctonia cereali; 50 mg/kg): 44.7%; Bactericidal activity (%) Colletotrichum orbiculare [5]: 42.9%; Armyworm Mortality (%) (armyworms): 15%; Cotton bollworm Mortality (%) (cotton bollworms): 10%; Mosquito larvae Mortality (%) (mosquito larvae; concentration 10 mg/kg): 35%; Corn borer Mortality (%) (corn borers): 10%
C[C@@H]1N[C@H](C(=O)NN=Cc2ccc3cc(O)ccc3c2)Cc2c1[nH]c1ccccc21 [Ic-14, (1S, 3S)—N′-(6-hydroxynaphthalene-2-methylene)-1-methyl-2,3,4,9-tetrahydropyridino [3,4-b] indol-3-formylhydrazine] | 0 | 40.9 | 16.9 | 45.6 | 8.2 | 43.9 | 0 | 47.8 | 19.2 | 47.1 | 77.8 | 30.0 | 10.3 | 44.0 | 88.2 | 72.7 | 28.9 | 84.2 | 28.6 | 56.0 | Bactericidal activity (%) Rhizoctonia cereali (Rhizoctonia cereali; 50 mg/kg): 86.3%; Bactericidal activity (%) Colletotrichum orbiculare [5]: 48.1%; Armyworm Mortality (%) (armyworms): 40%; Cotton bollworm Mortality (%) (cotton bollworms): 35%; Mosquito larvae Mortality (%) (mosquito larvae; concentration 10 mg/kg): 75%; Corn borer Mortality (%) (corn borers): 45%
C[C@@H]1N[C@H](C(=O)NN=CC2CCCCC2)Cc2c1[nH]c1ccccc21 [Ic-25, (1S, 3S)—N′-(cyclohexylmethylene)-1-methyl-2,3,4,9-tetrahydropyridino [3,4-b] indol-3-formylhydrazine] | 31.2 | 59.6 | 36.3 | 75.8 | 30.4 | 62.8 | 25.7 | 69.2 | 4.5 | 0.0 | 33.3 | 19.0 | 30.8 | 17.4 | 21.2 | 66.7 | 5.6 | 9.1 | 41.2 | 36.0 | Bactericidal activity (%) Rhizoctonia cereali (Rhizoctonia cereali; 50 mg/kg): 29.7%; Bactericidal activity (%) Colletotrichum orbiculare [5]: 24.0%; Armyworm Mortality (%) (armyworms): 45%; Cotton bollworm Mortality (%) (cotton bollworms): 20%; Mosquito larvae Mortality (%) (mosquito larvae; concentration 5 mg/kg): 10%; Mosquito larvae Mortality (%) (mosquito larvae; concentration 10 mg/kg): 100%; Corn borer Mortality (%) (corn borers): 55%

— patent publication US10208033B2, “β-carboline, dihydro-β-carboline and tetrahydro-β-carboline alkaloid derivatives and preparation methods same and use in aspects of preventing and treating plant viruses, fungicides and insecticides” (NANKAI UNIVERSITY, priority 2013, dated 2019)
